Measured values reported in article PMC3681905, “Anti-Influenza Activity of C60 Fullerene Derivatives” (PLoS ONE, 2013).
Read-outs that look alike come from different tables or passages of the source.

Experiments:
[1] = tested on: influenza A virus A/PR/8/34 (H1N1); experiment: microbe, parasite or virus in culture; assay type: cell-based; details: for IC50: read-out: IC50 H1N1 PR8 strain
[2] = tested on: influenza A virus A/Aichi/2/68 (H3N2); experiment: microbe, parasite or virus in culture; assay type: cell-based; details: for IC50: read-out: IC50 H3N2 Aichi strain
[3] = target: PA N-terminal endonuclease domain (residues 1–220) of influenza A RNA polymerase (Influenza A virus, UniProt P03433); experiment: in vitro PA endonuclease assay with recombinant PA endonuclease domain (M13 mp18 digestion, agarose electrophoresis); assay type: biochemical, influenza A virus (A/PR/8/34 (H1N1)); details: Fig. 2C; for inhibition of the digestion of M13 mp18 by the PA endonuclease domain: 10 µM fullerene derivative
Description: For the in vitro PA endonuclease assay, we expressed and purified a recombinant influenza PA endonuclease domain (1–220 residues; Fig. 2A, B) using bacteria as described previously [15]–[17]. For the assay, we incubated 0.1 µM recombinant PA endonuclease domain with 1 or 10 µM of each fullerene derivative (Fig. 2C). The PA endonuclease domain digested M13 mp18 circular single-stranded DNA in vitro (Fig. 2C, lanes 1 and 2) [12]–[16], and we investigated whether any of the fullerene derivatives could inhibit this activity. […] This is the first study to report that fullerene derivatives can inhibit the activity of influenza enzymes. Fullerene derivative no.
The influenza A virus (A/PR/8/34 (H1N1)) RNA polymerase PA plasmid, pBMSA-PA, was obtained from the DNA bank at Riken BioResource Center (Tsukuba, Japan; originally deposited by Susumu Nakada). The cDNA fragment corresponding to the PA N-terminal endonuclease domain (residues 1–220; Fig. 2A) was amplified by polymerase chain reaction (PCR) from pBMSA-PA. The amplified product was subcloned into the pET28a (+) plasmid (Novagen, Madison, WI, USA). The induction of recombinant protein expression was achieved by the addition of isopropyl-D-thiogalactopyranoside, and this was followed by purification using Ni^2+-agarose. The recombinant PA endonuclease domain protein was further purified to near homogeneity (Fig. 2B) using a HiTrapQ-FF column (GE Healthcare, Buckinghamshire, UK).
(§1) Influenza A RNA polymerase PA endonuclease activity assays were performed as described by Dias et al. with some modifications [12]–[16]. Briefly, the pH was lowered from 8.0 to 7.3, and 1 µg M13 mp18 single-stranded circular phage DNA was used as the substrate. A total of 0.25 µg recombinant PA endonuclease domain or full-length PA protein were added to 100 µL assay buffer for each reaction (the final concentration of the protein was approximately 0.1 µM). For the fullerene derivative nuclease assay, no PA protein was added at this step. The fullerene derivatives (summarized in Fig. 1) were then added to the reaction, and the products were analyzed by agarose electrophoresis and stained with ethidium bromide.

[4] = tested on: influenza A virus (A/PR/8/34 (H1N1)); assay type: cell-based; details: 100 µM, A/PR8/34 (H1N1), western blotting
[5] = target: full-length PA protein of influenza A RNA polymerase (Influenza A virus, UniProt P03433); experiment: in vitro PA endonuclease assay with recombinant full-length PA protein (M13 mp18 digestion); assay type: biochemical, influenza A virus (A/PR/8/34 (H1N1)); details: 10 µM fullerene derivative; Fig. 3C
Excerpt: We expressed the recombinant full-length PA protein by using a baculovirus to infect Sf9 insect cells (Fig. 3A) and purified it using a Ni-agarose and HiTrap-Q column (Fig. 3B). […] Then, we tested the 12 fullerene derivatives using this same assay. The fullerene derivatives 2–5, 7, 8, 10, and 11 inhibited the endonuclease activity of full-length PA (Fig. 3C), which is consistent with the results for the PA endonuclease domain (Fig. 2C). The M13 mp18 band in the no. 12-treated lane was degraded (Fig. 3C lane 14), the band in the no.
The cDNA fragment corresponding to the full-length protein-coding region of PA was amplified by PCR [38] from pBMSA-PA using the primers PA_start_TOPO ([…]), PA stop ([…]), PA_mid_anti ([…]), and PA_mid_TOPO ([…]). The amplified product was then subcloned into the pENTR/D-TOPO plasmid (Gateway®, Life Technologies™, Carlsbad, CA, USA) using topoisomerase I cloning. The resulting construct was then converted to pDEST10-PA using the clonase (Fig. 3A). The plasmid was transfected into Sf9 insect cells using the helper virus. The resultant baculovirus was again transfected into Sf9 cells. The expressed full-length PA protein was purified using Ni^2+-agarose and a HiTrap Q FF column (GE Healthcare) with the AKTA prime plus system (Fig. 3B).
as §1

[6] = design: method as in PMID 14643333; details: cited from earlier work
[7] = tested on: M13 mp18 single-stranded circular phage DNA; experiment: fullerene derivative nuclease assay in the absence of PA protein; assay type: biochemical; details: 10 µM; absence of PA endonuclease; M13 mp18 substrate; Fig. 4
[8] = design: method as in PMID 14643333; details: cited from earlier work; remark: listed apart in the source
MDCK cells = details: 12.5 to 100 µM, 24 h post-incubation
[9] = 0.1 µM recombinant PA endonuclease domain
[10] = Influenza A virus, H3N2, MDCK, 24 h

| Compound | number of NP-positive cells in comparison with the control (DMSO) [1] | inhibition of the digestion of M13 mp18 by the PA endonuclease domain [3, 9] | expression levels of influenza A NP and NS1 proteins compared with DMSO-treated cells [4] | inhibition of the endonuclease activity of full-length PA (M13 mp18 band) [5] | IC50 [1] [µM] | IC50 [2] [µM] | IC50 ([1]; Influenza A virus, MDCK, 24 h) [µM] | IC50 [2, 10] [µM] | further results |
| --- | --- | --- | --- | --- | --- | --- | --- | --- | --- |
| CCN1C(C(=O)O)C23c4c5c6c7c8c9c(c%10c%11c2c2c4c4c%12c5c5c6c6c8c8c%13c9c9c%10c%10c%11c%11c2c2c4c4c%12c%12c5c5c6c8c6c8c%13c9c9c%10c%10c%11c2c2c4c4c%12c5c6c5c8c9c%10c2c45)C73C1C(=O)O (stereo not drawn) [no. 9, 1-ethyl [60]fullerenopyrrolidine-2,5-dicarboxylic acid] | comparable | no or weak inhibitory activity | comparable | slightly inhibited | – | – | – | – | IC50 H1N1 PR8 strain [1]: could not be calculated; IC50 H3N2 Aichi strain [2]: could not be calculated; number of NP-positive cells in comparison with the DMSO [2]: comparable |
| 1,1,1′,1′-tetramethyl [60]fullerenodipyrrolidinium diiodide [no. 6] | – | no or weak inhibitory activity | reduced | – | 20 | 31 | – | – | antiproliferative activity [6]: antiproliferative and antibacterial activity; nuclease activity of the fullerene derivative by itself [7]: significant nuclease activity; antiviral effects against the influenza A virus (overall conclusion) ([1]; summary of immunostaining and western blotting): strongest antiviral activity; mobility shift of M13 mp18 ([3]; lane 13): caused a mobility shift; antibacterial activity [8]: antiproliferative and antibacterial activity |
| Oc1cc2c(cc1O)CC13c4c5c6c7c8c9c(c%10c%11c1c1c4c4c%12c5c5c6c6c8c8c%13c9c9c%10c%10c%11c%11c1c1c4c4c%12c%12c5c5c6c8c6c8c%13c9c9c%10c%10c%11c1c1c4c4c%12c5c6c5c8c9c%10c1c45)C73C2 (stereo not drawn) [no. 1, 1,4-dihydro-6,7-dihydroxy [60]fullerenonaphthlene] | comparable | no or weak inhibitory activity | comparable | slightly inhibited | – | – | – | – | IC50 H1N1 PR8 strain [1]: could not be calculated; IC50 H3N2 Aichi strain [2]: could not be calculated; number of NP-positive cells in comparison with the DMSO [2]: comparable; solubility in water (solubility in water): relatively low |
| COC1Cc2cccc(c2)Oc2c(O)cccc2CCc2ccc(cc2)Oc2cc1cc(O)c2O (stereo not drawn) [Marchantin E, reference compound] | – | – | reduced | – | – | – | 43 | 53 | cell viability vs DMSO-treated cells (MTT) (MDCK cells): not significantly different |
| CCOC(=O)CN1C(C(=O)O)C23c4c5c6c7c8c9c(c%10c%11c2c2c4c4c%12c5c5c6c6c8c8c%13c9c9c%10c%10c%11c%11c2c2c4c4c%12c%12c5c5c6c8c6c8c%13c9c9c%10c%10c%11c2c2c4c4c%12c5c6c5c8c9c%10c2c45)C73C1C(=O)OCC (stereo not drawn) [no. 10, 1-ethoxycarbonylmethyl [60]fullerenopyrrolidine-2,5-dicarboxylic acid 2-ethyl ester] | slightly decreased | significantly inhibited | slightly reduced | inhibited | – | – | > 100 | > 100 | – |
| O=C(O)CN1CCN(CC(=O)O)C23c4c5c6c7c8c9c(c%10c%11c2c2c4c4c%12c5c5c6c6c8c8c%13c9c9c%10c%10c%11c%11c2c2c4c4c%12c%12c5c5c6c8c6c8c%13c9c9c%10c%10c%11c2c2c4c4c%12c5c6c5c8c9c%10c2c45)C713 (stereo not drawn) [no. 7, [60]fullerenopiperazine-1,4-diacetic acid] | – | significantly inhibited | slightly reduced | inhibited | – | – | > 100 | > 100 | – |
| CN1CC23c4c5c6c7c8c9c(c%10c%11c2c2c4c4c%12c5c5c6c6c8c8c%13c9c9c%10c%10c%11c%11c2c2c4c4c%12c%12c5c5c6c8c6c8c%13c9c9c%10c%10c%11c2c2c4c4c%12c5c6c5c8c9c%10c2c45)C73C1c1cc[n+](C)cc1 (stereo not drawn) [no. 12, 4-(1′-methyl [60]fullerenopyrrolidin-2′-yl)-1-methylpyridinium iodide] | significantly reduced | – | slightly reduced | degraded | 78 | 63 | – | – | nuclease activity of the fullerene derivative by itself [7]: weaker nuclease activity; inhibition of the digestion of M13 mp18 by the PA endonuclease domain ([3]; […]): slightly inhibited |
| [60]fullerenotricyclopropane-1,1,1′,1′,1′′,1′′-hexacarboxylic acid [no. 8] | – | significantly inhibited | slightly reduced | inhibited | 37 | > 100 | – | – | – |
| O=C(O)C1NC(c2ccccc2)C23c4c5c6c7c8c9c(c%10c%11c2c2c4c4c%12c5c5c6c6c8c8c%13c9c9c%10c%10c%11c%11c2c2c4c4c%12c%12c5c5c6c8c6c8c%13c9c9c%10c%10c%11c2c2c4c4c%12c5c6c5c8c9c%10c2c45)C713 (stereo not drawn) [no. 11, 5-phenyl [60]fullerenopyrrolidine-2-carboxylic acid] | significantly reduced | significantly inhibited | reduced | inhibited | – | – | 44 | > 100 | – |
